Test results taken from patent US20060258581A1, “Methods and composition for derepressions of IAP-inhibited caspase” (priority 2001, published 2006).
Where no end group is shown, it is not given here. [ ]: non-standard residue; d: D form. d2Nal = N[C@H](Cc1ccc2ccccc2c1)C(=O)O

Experiments:
[1] = test system: chronic lymphocytic leukemia (CLL) B-cells; experiment: Freshly isolated CLL B-cells from patients, annexin-V/propidium iodide; format: cell-based, human; settings: 20-24 hours
Source text: (§1) Since many tumor and leukemia cell lines proliferate faster than normal cells, it was investigated whether the polyphenylurea compounds could induce apoptosis of non-replicating malignant cells. […] Thus, cell replication is not required for sensitivity to the disclosed poly-phenylurea compounds.

[2] = test system: NCI panel of 60 tumor cell lines; experiment: NCI panel of 60 tumor cell lines, 48 hours, protein-based colorimetric assay; parameters: species or system human
Experimental: Selected polyphenylurea compounds were tested on the National Cancer Institute (NCI) panel of 60 tumor cell lines (see FIG. 28a and FIG. 29).

[3] = test system: caspase-3 and caspase-7 activity in Jurkat cells; experiment: Caspase-3 and caspase-7 activity in whole Jurkat cells, cell permeable substrate; format: cell-based; settings: 8 μM, 20 hours
Jurkat leukemia cells = experiment: Jurkat leukemia cell death, Annexin V/propidium iodide flow cytometry; format: cell-based; settings: Homo sapiens, Jurkat, 20 h, 20 hours, read-out: % nonviable cells
Experimental: (§2) The following assay was used to test the ability of individual compounds from the TPI 1396 and TPI 1391 libraries to induce apoptosis of cultured tumor cell lines. Each of the compounds listed in Table IX was individually added to Jurkat leukemia cells (6.25×10^5 cells/mL) in RPMI containing 2.5% FBS at various concentrations for 20 hours. After incubation, cells were washed and stained with FITC-conjugated Annexin V antibody and propidium iodide (Biovision; Mountain View, Calif.). Cells were incubated for 20 minutes at room temperature in the dark and fluorescence was measured by flow cytometry (FACScan, Immunocytometry system; Becton-Dickinson; San Jose, Calif.). Cells staining positive for Annexin V were deemed non-viable.
(§3) The TPI I396-34 and TPI 1391-28 compounds were further tested as set forth below.

full length XIAP = full length XIAP (Homo sapiens, UniProt P98170); experiment: Potency of IAP antagonists in vitro (Table VIII; caspase derepression / SMAC competition with full length XIAP)
XIAP-inhibited caspase-3 = target: T1, XIAP-inhibited caspase-3 (Homo sapiens, UniProt P98170); experiment: IAP derepression assay: Ac-DEVD-AFC hydrolysis by caspase-3 in the presence of GST-XIAP; format: biochemical
T1 construct: in a caspase derepression assay using full length XIAP; made in house; host or cells: bacteria
Experimental: The ratio of Vmax for hydrolysis of Ac-DEVD-AFC in the presence and absence of the candidate mixture was calculated and used to identify those that contain an agent that derepresses an IAP-inhibited caspase.
(§4) Each mixture was aliquoted in a 25 microliter volume and in duplicate to a well of a 96 well microtiter plate. […] Fluorescence of liberated AFC was immediately detected from each well for 30 minutes at 30 second intervals. The Vmax for hydrolysis of AC-DEVD-AFC from each well was measured using the softmax software package.

[4] = test system: acute myelogenous leukemia (AML) blasts; experiment: Freshly isolated AML leukemic blasts from patients, annexin-V; format: cell-based, human; settings: 20-24 hours
Source text: as §1

[5] = target: GST-BIR2 (glutathione-S-transferase-BIR2 fusion protein of XIAP) (human) (UniProt P98170); experiment: fluorescence polarization; 20 nM rhodamine-SMAC, GST-BIR2 0 to 495 nM
[6] = target: BIR3RING (XIAP fragment) (human) (UniProt P98170); experiment: fluorescence polarization; 20 nM rhodamine-SMAC, BIR3RING titrated
[7] = test system: mouse embryo fibroblasts (MEFs) from XIAP -/- mice; experiment: Mouse embryo fibroblasts from XIAP -/- and wild type mice, MTT assay; format: cell-based; settings: non-transformed versus SV40 large T transformed MEFs
Experimental: Cells were either tested directly at low passage (FIGS. 38A and C) or after transformation by infection with a retrovirus encoding SV40 large T antigen (FIGS. 38B and D). […] Cell viability was measured by MTT assay, expressing data as a percentage relative to control, untreated cells. Data shown in FIG. 38A-D represent mean±standard deviation of triplicate determinations.

[8] = Jurkat leukemia cell death, Annexin V/propidium iodide flow cytometry; format: cell-based; settings: human, 20 hours, read-out: % nonviable cells
Experimental: as §2, §3

caspase-3 = target: T2, caspase-3 (Homo sapiens, UniProt P42574); experiment: Caspase assay without XIAP (candidate mixture and caspase 3 only); format: biochemical; settings: TPI 1239 library, absence of XIAP
T2 construct: made in house; host or cells: bacteria
Experimental: Caspase activity was assayed by release of 7-amino-4-trifluoromethyl-coumarin (AFC) from Ac-DEVD-AFC synthetic peptides using a Molecular Devices Spectromax 340 (see Zhou et al., J. Biol. Chem. 272:7797-7800 (1997)). […] The ratio of Vmax for hydrolysis of Ac-DEVD-AFC in the presence and absence of the candidate mixture was calculated and used to identify those that contain an agent that derepresses an IAP-inhibited caspase.
as §4, with “Screening of each mixture from the DCR390, TPI 1239 or TPI 1328 library, respectively, using the above described assay was carried out as follows. Each” for “Each”
Results of the screen for the DCR390 library are shown in Table I. Sets of mixtures having the same position fixed with different respective amino acids are arranged in 6 sections identified with the position number. […] The mixtures in each section are arranged in descending order according to apparent velocity in the second column.

Smac-7 mer/XIAP-BIR2 = experiment: Competition assay Smac-7 mer/XIAP-BIR2 IC-50 uM | AVG

T1 sequence (P98170 whole entry): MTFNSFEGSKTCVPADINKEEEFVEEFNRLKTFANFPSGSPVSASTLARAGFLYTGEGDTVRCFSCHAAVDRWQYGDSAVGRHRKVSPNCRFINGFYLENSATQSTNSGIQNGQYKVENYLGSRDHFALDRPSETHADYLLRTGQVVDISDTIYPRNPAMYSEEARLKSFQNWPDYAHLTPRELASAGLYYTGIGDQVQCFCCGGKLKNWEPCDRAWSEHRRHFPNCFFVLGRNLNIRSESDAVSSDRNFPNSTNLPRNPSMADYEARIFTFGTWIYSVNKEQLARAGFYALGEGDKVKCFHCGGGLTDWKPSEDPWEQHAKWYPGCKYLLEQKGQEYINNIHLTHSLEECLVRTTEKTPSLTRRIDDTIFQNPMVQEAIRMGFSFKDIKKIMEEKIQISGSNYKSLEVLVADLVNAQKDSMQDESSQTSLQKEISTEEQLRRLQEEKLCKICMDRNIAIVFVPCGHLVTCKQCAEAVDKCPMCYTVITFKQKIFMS
Sequence of GST-BIR2 (glutathione-S-transferase-BIR2 fusion protein of XIAP) (human) (P98170 124-240): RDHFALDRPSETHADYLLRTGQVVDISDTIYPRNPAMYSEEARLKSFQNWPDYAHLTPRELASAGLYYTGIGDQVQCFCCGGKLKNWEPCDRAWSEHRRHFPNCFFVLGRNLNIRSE
T2 sequence (P42574 29-175 limits assumed): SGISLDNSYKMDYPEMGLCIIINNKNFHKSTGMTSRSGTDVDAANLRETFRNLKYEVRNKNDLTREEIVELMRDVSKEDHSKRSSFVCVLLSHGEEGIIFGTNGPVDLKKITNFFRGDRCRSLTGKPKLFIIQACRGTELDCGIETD
T2 sequence (P42574 176-277 limits assumed): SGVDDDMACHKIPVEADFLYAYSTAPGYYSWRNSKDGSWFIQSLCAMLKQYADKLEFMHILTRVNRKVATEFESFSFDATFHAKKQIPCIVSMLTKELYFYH
Sequence of full length XIAP (P98170 whole entry): as the sequence (P98170 whole entry) above
Sequence of BIR3RING (XIAP fragment) (human) (P98170 243-497 limits assumed): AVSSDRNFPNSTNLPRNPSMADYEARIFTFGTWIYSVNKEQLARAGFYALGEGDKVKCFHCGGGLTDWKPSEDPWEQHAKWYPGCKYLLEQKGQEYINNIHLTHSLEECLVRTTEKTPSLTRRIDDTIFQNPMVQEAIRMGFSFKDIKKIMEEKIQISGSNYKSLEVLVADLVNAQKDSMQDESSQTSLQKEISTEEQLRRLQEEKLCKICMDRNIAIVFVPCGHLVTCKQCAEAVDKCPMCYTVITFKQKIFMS

Which results are given for `CCCC[C@@H](CN(C(=O)Nc1ccccc1)[C@@H](CNC(=O)Nc1ccccc1)CC1CCCCC1)N(CCc1ccc(O)cc1)C(=O)Nc1ccccc1` [TPI 1396-28]?
apoptosis induction [1]: did not induce apoptosis; average (mean) LD50 for the 60 cell lines [2]: > 70 µM; caspase activation in whole cells [3]: did not induce caspase activation; cytotoxicity at 1 µM (Jurkat leukemia cells; 1 μM): 13%; cytotoxicity at 10 µM (Jurkat leukemia cells; 10 μM): 13%; cytotoxicity at 25 µM (Jurkat leukemia cells; 25 μM): 14%; cytotoxicity at 50 µM (Jurkat leukemia cells; 50 μM): 13%; EC50 (full length XIAP): > 134000 nM; Activity* (relative caspase-3 activity: Vmax in the presence of compound / Vmax of controls having caspase-3 and XIAP) (XIAP-inhibited caspase-3; XIAP derepression assay): 1.3; activity in the caspase derepression assay using full length XIAP (XIAP-inhibited caspase-3; in words): inactive analog; apoptosis induction [4]: did not induce apoptosis

With “rhodamine labeled SMAC (rhodamine-SMAC) (peptide)” as the compound, how does the Kd [5] read?
The Kd was 100 nM.

And the Kd [6]?
The Kd was 80 nM.

Which “selectivity for transformed cells” value [7] does the source give for `COc1cccc2c1C(=O)c1c(O)c3c(c(O)c1C2=O)C[C@@](O)(C(C)=O)C[C@@H]3O[C@H]1C[C@H](N)[C@H](O)[C@H](C)O1` [daunorubicin] here?
Its value is “do not display selectivity for transformed cells”.

For “H-AVPIAQK-NH2 [SMAC, H-Ala-Val-Pro-Ile-Ala-Gln-Lys-NH2, reference compound]”, which cytotoxicity at 20 hours, 5 µM ([8]; 5 μM) is on record?
The cytotoxicity at 20 hours, 5 µM was 12%.

What about the cytotoxicity at 20 hours, 25 µM ([8]; 25 μM) of the same compound?
The cytotoxicity at 20 hours, 25 µM was 16%.

And the cytotoxicity at 20 hours, 50 µM ([8]; 50 μM)?
Its cytotoxicity at 20 hours, 50 µM is ~16%.

What about the cytotoxicity at 20 hours, 100 µM ([8]; 100 μM) of the same compound?
The cytotoxicity at 20 hours, 100 µM was 15%.

And the “Vmax(mix + casp3 + XIAP) / Vmax(casp3 + XIAP)” value (XIAP-inhibited caspase-3; TPI 1239 library)?
Its value is 3.8 ± 1.7.

And the “Vmax(mix + casp3) / Vmax(casp3)” value (caspase-3)?
Its value is 0.8 ± 0.0.

For “(D-Trp)-(D-Trp)-(L-Trp)-(D-Nal) ([dW][dW]W[d2Nal]) [TPI 1332-24]”, which IC50 (Smac-7 mer/XIAP-BIR2) is on record?
Its IC50 is 5000 ± 4800 nM.
